Data set [1] concerns MCF-7 xenografts. The data set can be described thus: MicroPET/CT imaging and ex-vivo biodistribution in MCF-7 bearing mice. Further details: species or system mouse. The note with it: for kidney concentration / liver concentration / small intestines concentration: 2 h post injection. As for the experimental part: Female athymic nude CrTac:NCr-Foxnlnu mice (n=35) were purchased from Taconic Laboratories (Hudson, NY). 20 mice received subcutaneous injections with 2×10^6 human MCF-7 cancer cells in Matrigel® (BD Biosciences, San Jose, CA) into each right shoulder and were allowed to grow for approximately two months until the tumors reached ˜10 mm in diameter. All mice were supplemented with 60 days 0.72 mg slow release estradiol pellets purchased from Innovative Research of America (IRA, Sarasota, FL) implanted in the left flank. Mice were anesthetized (isoflurane 1.5%, 2 L/min medical air) during tumor implantation and microPET imaging.
Twelve subcutaneous MCF-7 implanted athymic nude mice were divided in two groups (blocked and unblocked) and administered with ^18F-CDKi (˜7.4 mBq) via tail vein injection. Approximately 5 min prior to PET acquisition, mice were anesthetized by inhalation of a mixture of isoflurane (Baxter Healthcare, Deerfield, IL, USA; 2% isoflurane, 2 L/min medical air) and positioned on the scanner bed. Anesthesia was maintained using a 1% isoflurane/O2 mixture. PET data for each mouse was recorded and acquired at 30 min p.i and at 120 min p.i. Blocking studies were performed after a pre-injection of 50-fold excess palbociclib (8.4 nmol, 3.8 μg, 30 min before). The duration of the microPET/CT imaging sessions was 20 min each.
Biodistribution of ^18F-CDKi was performed in subcutaneous MCF-7 bearing athymic nude mice (n=8). Mice were divided (n=4/group) in blocked and unblocked (50-fold excess palbociclib, 30 minutes before) and administered with ^18F-CDKi via tail vein injection (1.85 mBq). At 120 minutes post injection of the radioligand, the mice were sacrificed and organs of interest were collected. Organs were weighed, and activity was measured with a WIZARD^2 automatic γ-counter (PerkinElmer, Boston, MA). The radiopharmaceutical uptake was expressed as a percentage of injected dose per gram (% ID/g) using the following formula: [(activity in the target organ/grams of tissue)/injected dose]×100%.

The subject of data set [2] is MCF-7 cells. The data set is described as follows: In vitro cell-associated uptake of ^18F-CDKi. Type of data set: cell-based, human. As for the experimental part: MCF-7 cells were seeded in a 6 well plates (5×10^6 cells 24 hours prior the experiment). The next day, ^18F-CDKi was added alone or together with a 50-fold excess Palbociclib and incubated at 37° C. for 1 h. After 1 h, cells were firstly washed three times with PBS, then lysed with 1N NaOH, and finally media and cells counted in a γ-counter. The percentage of bound/unbound radioligand at each time point was measured in triplicate and plotted as a function of time.

A short description of data set [3]: In vitro stability. The following applies: after 4 h of incubation. The data set is classed as in vitro ADME.
Data set [4] relates to CDK4/6. The data set can be described thus: IC50 binding affinity, competitive ATP quantitative assay (CellTiter-Glo, MCF-7 cells). Type of data set: cell-based, human. The following applies: for binding affinity to CDK4/6: FIG. 2A legend. As to the method: (§1) IC50 values were determined using a competitive ATP quantitative assay. […]. MCF-7 cells were cultured at 37° C. for 4 h. Then, ^19F-CDKi or vehicle was added at different concentration and incubated at 37° C. for 96 h. Cell viability was then assessed using CellTiter-Glo® Luminescent Assay (Promega, Madison, WI), used accordingly to manufacturer's guidelines. Cell viability inhibition (%) was calculated according to the formula [1−(mean luminosity of treated sample/mean luminosity of vehicle control)]×100. IC50 for growth or viability inhibition was calculated using Graph Prism 8 (GraphPad Software Inc, La Jolla, CA). We used ^18F-CDKi and palbobiclib for competitive displacement studies. MCF-7 cells were seeded in a 12 wells plate (1×10^5 cells 24 h prior the experiment). The next day, a fixed concentration of ^18F-CDKi (50 nM) was co-incubated with linearly doubling concentrations of palbociclib (from 0 to 500 nM) at 37° C. for 2 h. Then, the cells were washed twice with PBS, lysed with 1N NaOH, and the activity (CPM) measured in a γ-counter for bound ^18F radioligand. The percentage of bound radioligand was finally plotted against palbociclib concentration. Competitive displacement curves were fitted using Graph Prism 8 (GraphPad Software Inc, La Jolla, CA).

Data set [5] in a line: Blood half-life. The following applies: mice, single bolus intravenous injection. Type of data set: in vivo, mouse. As for the experimental part: The blood half-life of ^18F-CDKi was calculated by measuring the activity of blood samples collected at different time points p.i. (5, 15, 30, 45, 60, 90 and 120 minutes). Female nude mice (n=3) were injected via lateral tail vein with ^18F-CDKi (and blood samples obtained by retro-orbital bleed using tared capillary tubes. Samples were weighed, and activity was measured by γ-counter. The blood half-life was calculated using Graph Prism 7 (GraphPad Software, La Jolla, CA) using a two-phase decay least squares fitting method and expressed as % ID/g.

A short description of data set [6]: Octanol/water partition coefficient. Type of data set: physicochemical. The note with it: 1-octanol / phosphate buffered saline pH 7.4. As to the method:
The Chemical Hydrophobicity Indices (CHI) were measured using a previously developed procedure (Valkó, Journal Chromatogr A. 2004; 1037:299-310, Valkó et al., Anal Chem. 1997; 69:2022-2029. Briefly, reverse phase HPLC was used to measure the retention times of a set of standards with known CHI. A standard curve was then created to calculate the CHI of […] based on the HPLC retention time. The lipophilicity of the ^18F-CDKi was acquired by adding 0.09 mBq to a mixture of 0.5 mL of 1-octanol and 0.5 mL of 25 mM phosphate buffered saline (pH 7.4) and mixed for 5 minutes. Then, the mixture was centrifuged at 15.000 rpm for 5 minutes. 100 μL samples were obtained from organic and aqueous layers, and the radioactivity of the samples were measured in a WIZARD^2 automatic γ-counter. The experiment was performed in triplicate, and the resulting log Pow was calculated as the mean±SD.

The test system of data set [7] is MCF-7 cells. The data set is described as follows: Competitive displacement of ^18F-CDKi by palbociclib in MCF-7 cells. The data set is classed as cell-based, human. The following applies: 50 nM ^18F-CDKi, palbociclib 0 to 500 nM, 2 h, read-out: inhibition effect, competitive displacement of palbociclib. As for the experimental part: as §1
The mark [8] stands for this setting: first of two values joined by 'or'.
[9] abbreviates: second of two values joined by 'or'.

Values joined by “and” are separate entries in the source; they are usually repeats but may differ in a detail not shown here. Identical values can stand only once. Like-named read-outs stand apart in the source and are kept apart here.

In data set [1] (setting [8]), `CC(=O)c1c(C)c2cnc(Nc3ccc(N4CCN(C(=O)c5ccc([18F])cc5)CC4)cn3)nc2n(C2CCCC2)c1=O` [^18F-CDKi] yielded a kidney concentration of 7.99±0.7 % ID/g, a liver concentration of 6±0.5 % ID/g and a small intestines concentration of 9.6±2.7 % ID/g. In data set [1] (setting [9]), the kidney concentration was 9.6±0.98 % ID/g, the liver concentration is reported as 6.77±1.15 % ID/g and the small intestines concentration was 10±1.19 % ID/g. Moreover, in data set [1] (MCF-7 bearing mice, 2 h p.i.), the tumor-to-blood ratio is given as above 5, the tumor-to-bone ratio was above 10 and the tumor-to-muscle ratio is recorded as above 15. In addition, the “tumor uptake after injection of palbociclib prior to the radiotracer” value in data set [1] (MCF-7 bearing mice, in words) is listed as “negligible”. Moreover, in data set [1] (MCF-7 xenografts, 50-fold excess of cold palbociclib pre-injected), the “tumor uptake, blocked” value is listed as around 0.3 % ID/g. The tumor uptake in data set [1] (MCF-7 xenografts, ^18F-CDKi alone, 2 h p.i.) was around 4 % ID/g. The clearance route entry in data set [1] (PET imaging and biodistribution, mice) was “hepatobiliary route”. The “cell uptake blocked by excess of cold, unlabeled palbociclib” value in data set [2] is above 98%. Further, in data set [2] (10 minutes post incubation), the maximum intracellular concentration is on record as around 65%. Besides, the “tracer uptake when co-incubated with a molar excess of Palbociclib” value in data set [2] (blocked) is on record as below 5%. Moreover, in data set [3], the “in vitro stability, parent compound intact” value is reported as “more than 98%”. Moreover, the IC50 in data set [4] (FIG. 2A, read-out: targeting affinity to CDK4/6) was around 13 nM. In data set [4] (in words), the “IC50 against both CDK4 and CDK6 kinases” value is “single digit nanomolar”; the “binding affinity to CDK4/6” value is listed as “nanomolar”. In data set [4] (in words, similar to the parent compound palbociclib), the IC50 entry was “nanomolar range”. The “in vivo blood half-life t1/2(weighted)” value in data set [5] is 7.03 min and 7 min. Moreover, in data set [6], the “octanol/water phase partition coefficient (log DO/W)” value stood at 1.91±0.24. In addition, the logD in data set [6] (read-out: octanol/water phase partition coefficient (log DO/W)) worked out at 1.91 ± 0.24.

In the case of `CC(=O)c1c(C)c2cnc(Nc3ccc(N4CCN(C(=O)c5ccc(F)cc5)CC4)cn3)nc2n(C2CCCC2)c1=O` [^19F-CDKi], the “binding affinity to CDK4/6” value in data set [4] (in words) is “nanomolar”. In data set [7], the IC50 was around 18 nM.

The values above are taken from patent US12090157B2, “Non-invasive pet imaging of CDK4/6 activation in cancer” (New York University, priority 2020, dated 2024).
